In brackets after ≈: the same amount, converted by molar mass.
Experiments:
[1] = tested on: ALS (acetolactate syntase); assay: ALS enzyme assay (Test 1); format: biochemical, pea; conditions: 1,000 ppm (0.5 mg/0.5 ml)
Procedure: To determine the selectivity in enzyme level between crops and weeds, and ALS enzyme assay was conducted using pea as a representative of broadleaf crops and barnyardgrass as a representative of narrowleaf weeds.
After seeds of pea and barnyardgrass were allowed to germinate at 25° C. for 8-14 days in a dark place, partially-purified suspensions (Suspensions A) of acetolactate syntase were separately obtained from seedlings in accordance with the method described in the literature, Plant Physiology, 75, 827-831.
In a test tube, 0.5 mg of one of test compounds was weighed, followed by the addition of 0.15 ml of a 20 mM K2 HPO4 solution and 0.25 ml of a reaction substrate medium which consisted of 40 mM of K2 HPO4, 40 mM of sodium pyruvate, 1 mM of TPP, 1 mM of MgCl2 and 20 μM of FAD so that 0.4 ml of a reaction solution (Solution B) was prepared. Added to 0.4 ml of Solution B was 0.1 ml of suspension A. After the resultant mixture was shaken for 1 hour in a thermostat water bath controlled at 30° C., 50 μl of 6N sulfuric acid were added to terminate the reaction.
Next, the reaction-terminated liquid mixture was transferred into a thermostat water bath controlled at 60° C. and was heated for 15 minutes. Thereafter, 0.5 ml of a 0.5% creatine solution and 0.5 ml of a 5% alkaline α-naphthol solution were added, and the resultant mixture was maintained at 60° C. for 15 minutes. As a result, the test solution developed a pink-red color. After the above operation, the absorbance of the test solution at 525 nm was measured by a spectrophotometer (Absorbance 1 of Test Compound).
On the other hand, the absorbance (Absorbance 2 of Blank) of a solution obtained by subjecting a portion of Solution B, said portion being free of the test compound, to the above operation and the absorbance (Absorbance 3 of sulfuric acid terminated) of another solution obtained by subjecting another portion of Solution B, said portion containing 50 μl of 6N sulfuric acid as a test compound, were measured at the same time. Based on the values of the respective measurements, the enzyme assay at 1,000 ppm (0.5 mg/0.5 ml) of each compound was determined. [formula]

[2] = tested on: barnyardgrass; assay: Upland soil application test (Test 2); format: in vivo; conditions: 30 g ai/a, soil spray before emergence, 30 days later
Procedure: (§1) Resin-made 1/2500-are pots were filled with the soil of an upland field. After they were fertilized, soybean, peanut and cotton were seeded and 2-3 cm soil covering was applied. Seeds of redroot pigweed, common lambsquarters, barnyardgrass, green foxtail, large crabgrass, foxtail meadow and johnsongrass had been uniformly mixed with the soil. They were allowed to germinate in a green house. One day later (before emergence of weeds), a wettable powder prepared from a predetermined amount of each test compound in a similar manner to the method described in Formulation Example 1 was diluted with water and then sprayed evenly at an application rate equal to 10 l per are onto the surface of the soil by means of a pressure-operated ULV (ultra low volume) sprayer. Influence to the crops and weeds were observed 30 days later. The results are shown in Table 3, in which the degree of damages of each test plant and the degree of injury to each crop were determined by comparing the air-dried weights of the test plant and crop with those of the corresponding plant and crop in untreated pots and are shown in accordance with the following standard: […]

[3] = tested on: common lambsquarters; assay: Upland soil application test (Test 2); format: in vivo; conditions: 30 g ai/a, soil spray before emergence, 30 days later
Procedure: as §1

[4] = tested on: large crabgrass; assay: Upland soil application test (Test 2); format: in vivo; conditions: 30 g ai/a, soil spray before emergence, 30 days later
Procedure: as §1

[5] = tested on: redroot pigweed; assay: Upland soil application test (Test 2); format: in vivo; conditions: 30 g ai/a, soil spray before emergence, 30 days later
Procedure: as §1

[6] = tested on: cotton; assay: Upland soil application test (Test 2), crop injury; format: in vivo; conditions: 30 g ai/a, soil spray before emergence, 30 days later
Procedure: as §1

[7] = tested on: peanut; assay: Upland soil application test (Test 2), crop injury; format: in vivo; conditions: 30 g ai/a, soil spray before emergence, 30 days later
Procedure: as §1

[8] = tested on: soybean; assay: Upland soil application test (Test 2), crop injury; format: in vivo; conditions: 30 g ai/a, soil spray before emergence, 30 days later
Procedure: as §1

[9] = tested on: cotton; assay: Upland foliar application test (Test 3), crop injury; format: in vivo; conditions: 30 g ai/a, foliar spray at 2-3 leaves, 30th day
Procedure: (§2) Resin-made 1/10000-are pots were filled with the soil of an upland field. Redroot pigweed, common lambsquarters, foxtail meadow, johnsongrass, barnyardgrass, green foxtail, large crabgrass, soybean, peanut and cotton were separately seeded and were allowed to germinate in a green house. When each plant grew to the stage of 2-3 leaves, an emulsion formulated from a predetermined amount of each test compound in a similar manner to the method described in Formulation Example 11 was diluted with water to a predetermined dilution rate and then sprayed at an application rate equal to 5 l per are onto the foliage of each plant by means of a pressure-operated ULV (ultra low volume) sprayer. Influence to the crops and weeds were observed on the 30th day after the spray of the herbicides. The results are shown in Table 4 in which the degree of damages of each test plant and the degree of injury to each crop are shown in a similar manner to Test 2.

[10] = tested on: peanut; assay: as above; format: in vivo; conditions: 30 g ai/a, foliar spray at 2-3 leaves, 30th day
Procedure: as §2

[11] = tested on: soybean; assay: as above; format: in vivo; conditions: 30 g ai/a, foliar spray at 2-3 leaves, 30th day
Procedure: as §2

[12] = tested on: Sagittaria pygmaea; assay: Treatment of soil under submerged condition, post-emergence (Test 5); format: in vivo; conditions: 30 g ai/a granule, 30 days later
Procedure: (§3) 1/5000-are Wagner pots were filled with soil. Seeds or tubers of barnyardgrass, Monochoria vaginalis, bulrush, Sagittaria pygmaea, Cyperus serroylnus and Eleocharis kuroguwai were seeded or planted under submerged condition. Two pairs of rice seedlings (2-3 leaf stage), which had been reared in advance, were transplanted to each pot and were allowed to grow in a green house. Each pair consisted of two rice seedlings. When the barnyardgrass grew to two-leaf stage, each pot was treated with a granule which had been prepared by processing a predetermined amount of the test composition in accordance with a similar method to the method described in Formulation Example 9. The state of emergence of weeds and the state of injury of rice were observed 30 days later.
(§4) In the table, the degrees of damages of the test plants and the degrees of injury of the rice are shown in a similar manner to Example 2.

[13] = tested on: barnyardgrass; assay: as above; format: in vivo; conditions: 30 g ai/a granule, post-emergence (barnyardgrass two-leaf stage), 30 days later
Procedure: as §3, §4

[14] = tested on: bulrush; assay: as above; format: in vivo; conditions: 30 g ai/a granule, 30 days later
Procedure: as §3, §4

[15] = tested on: rice; assay: Treatment of soil under submerged condition, post-emergence (Test 5), injury; format: in vivo; conditions: 30 g ai/a granule, 30 days later
Procedure: as §3, §4

[16] = tested on: narrowleaf waterplantain; assay: Petri dish test (Test 6); format: in vivo; conditions: 336 h; seeds on filter paper, 25° C., 14 days; read-out: I80 (ppm)
Procedure: A filter paper was placed in each glass-made Petri dish having a diameter of 9 cm. A compound dissolved in acetone was added in a predetermined amount. The filter paper was then dried in air to remove acetone. Seeds of narrowleaf waterplantain were placed on the filter paper and 10 ml of water were poured into the Petri dish. The seeds were allowed to grow at 25° C. in a bright room. Fourteen days later, the state of growth of narrowleaf water-plantain was observed.
In the table, the degree of damages of the test plant was determined by comparing the state of growth of the plant with that of the plant in an untreated group and is shown in accordance with the following standard: […]

Compound	Inhibitory activity (%) Pea [1] [%]	Herbicidal effects Barnyardgrass [2]	Herbicidal effects Common lambsquarters [3]	Herbicidal effects Large crabgrass [4]	Herbicidal effects Redroot pigweed [5]	Injury Cotton [6]	Injury Peanut [7]	Injury Soybean [8]	Injury Cotton [9]	Injury Peanut [10]	Injury Soybean [11]	Herbicidal effects Sagittaria Pygmaea [12]	Herbicidal effects Barnyardgrass [13]	Herbicidal effects Bulrush [14]	Injury Rice [15]	IC80 [16] [µg/mL]
COC(=O)c1ccccc1Oc1nc(OC)cc(OC)n1 [A, reference compound]	72	5 (0-5 (Death))	4 (6-10 (Severe damages))	5 (0-5 (Death))	5 (0-5 (Death))	5 (0-5 (Death))	5 (0-5 (Death))	5 (0-5 (Death))	5 (0-5 (Death))	5 (0-5 (Death))	5 (0-5 (Death))	4 (6-10 (Severe damages))	5 (0-5 (Death))	4 (6-10 (Severe damages))	5 (0-5 (Death))	1 (≈ 3.45 µM)
COc1cc(OC)nc(Oc2ccccc2C=O)n1 [B, reference compound]	92	4 (6-10 (Severe damages))	3 (11-40 (Medium damages))	4 (6-10 (Severe damages))	3 (11-40 (Medium damages))	5 (0-5 (Death))	5 (0-5 (Death))	5 (0-5 (Death))	5 (0-5 (Death))	5 (0-5 (Death))	5 (0-5 (Death))	4 (6-10 (Severe damages))	5 (0-5 (Death))	5 (0-5 (Death))	5 (0-5 (Death))	1 (≈ 3.84 µM)
CON=Cc1ccccc1Oc1nc(OC)cc(OC)n1 [Compound No. 1, O-methyl--2-(4,6-dimethoxy-2-pyrimidinyloxy)benzaldoxime]	3	5 (0-5 (Death))	4 (6-10 (Severe damages))	4 (6-10 (Severe damages))	5 (0-5 (Death))	0 (91-100 (No damages))	0 (91-100 (No damages))	0 (91-100 (No damages))	0 (91-100 (No damages))	0 (91-100 (No damages))	0 (91-100 (No damages))	3 (11-40 (Medium damages))	4 (6-10 (Severe damages))	5 (0-5 (Death))	0 (91-100 (No damages))	25 (≈ 86.4 µM)
C=CC(C)ON=Cc1ccccc1Oc1nc(OC)cc(OC)n1 (centres unmarked) [Compound No. 2]	0	5 (0-5 (Death))	4 (6-10 (Severe damages))	5 (0-5 (Death))	4 (6-10 (Severe damages))	0 (91-100 (No damages))	0 (91-100 (No damages))	0 (91-100 (No damages))	0 (91-100 (No damages))	0 (91-100 (No damages))	0 (91-100 (No damages))	5 (0-5 (Death))	5 (0-5 (Death))	5 (0-5 (Death))	0 (91-100 (No damages))	100 (≈ 304 µM)
COc1cc(OC)nc(Oc2ccccc2C=NOC2CCCCC2)n1 [Compound No. 3]	0	3 (11-40 (Medium damages))	3 (11-40 (Medium damages))	3 (11-40 (Medium damages))	3 (11-40 (Medium damages))	0 (91-100 (No damages))	0 (91-100 (No damages))	0 (91-100 (No damages))	0 (91-100 (No damages))	0 (91-100 (No damages))	0 (91-100 (No damages))	3 (11-40 (Medium damages))	3 (11-40 (Medium damages))	3 (11-40 (Medium damages))	0 (91-100 (No damages))	100 (≈ 280 µM)
COc1cc(OC)nc(Oc2ccccc2C=NOCc2ccc(Cl)c(Cl)c2)n1 [compound 18]	0	4 (6-10 (Severe damages))	4 (6-10 (Severe damages))	3 (11-40 (Medium damages))	3 (11-40 (Medium damages))	0 (91-100 (No damages))		0 (91-100 (No damages))	0 (91-100 (No damages))	0 (91-100 (No damages))	0 (91-100 (No damages))	4 (6-10 (Severe damages))	3 (11-40 (Medium damages))	4 (6-10 (Severe damages))	0 (91-100 (No damages))	67 (≈ 154 µM)
